Here are results for two compounds from ChEMBL document CHEMBL2074451, “ATP- and glutathione-dependent transport of chemotherapeutic drugs by the multidrug resistance protein MRP1” (Br J Pharmacol, 1999).

In data set [1] the target is Multidrug resistance-associated protein 1 (Homo sapiens, UniProt P33527). The data set is described as follows: TP_TRANSPORTER: uptake in membrane vesicles from GLC4/ADR cells. Format: functional, cell membranes, Membrane vesicle. Conditions: glc-4/adr.
Data set [2] deals with ATP-dependent translocase ABCB1 (Homo sapiens, UniProt P08183). The data set is described as follows: TP_TRANSPORTER: uptake in A2780 and A2780AD cells. Format: functional, cell-based.
ATP-dependent translocase ABCB1, sequence (P08183 whole entry): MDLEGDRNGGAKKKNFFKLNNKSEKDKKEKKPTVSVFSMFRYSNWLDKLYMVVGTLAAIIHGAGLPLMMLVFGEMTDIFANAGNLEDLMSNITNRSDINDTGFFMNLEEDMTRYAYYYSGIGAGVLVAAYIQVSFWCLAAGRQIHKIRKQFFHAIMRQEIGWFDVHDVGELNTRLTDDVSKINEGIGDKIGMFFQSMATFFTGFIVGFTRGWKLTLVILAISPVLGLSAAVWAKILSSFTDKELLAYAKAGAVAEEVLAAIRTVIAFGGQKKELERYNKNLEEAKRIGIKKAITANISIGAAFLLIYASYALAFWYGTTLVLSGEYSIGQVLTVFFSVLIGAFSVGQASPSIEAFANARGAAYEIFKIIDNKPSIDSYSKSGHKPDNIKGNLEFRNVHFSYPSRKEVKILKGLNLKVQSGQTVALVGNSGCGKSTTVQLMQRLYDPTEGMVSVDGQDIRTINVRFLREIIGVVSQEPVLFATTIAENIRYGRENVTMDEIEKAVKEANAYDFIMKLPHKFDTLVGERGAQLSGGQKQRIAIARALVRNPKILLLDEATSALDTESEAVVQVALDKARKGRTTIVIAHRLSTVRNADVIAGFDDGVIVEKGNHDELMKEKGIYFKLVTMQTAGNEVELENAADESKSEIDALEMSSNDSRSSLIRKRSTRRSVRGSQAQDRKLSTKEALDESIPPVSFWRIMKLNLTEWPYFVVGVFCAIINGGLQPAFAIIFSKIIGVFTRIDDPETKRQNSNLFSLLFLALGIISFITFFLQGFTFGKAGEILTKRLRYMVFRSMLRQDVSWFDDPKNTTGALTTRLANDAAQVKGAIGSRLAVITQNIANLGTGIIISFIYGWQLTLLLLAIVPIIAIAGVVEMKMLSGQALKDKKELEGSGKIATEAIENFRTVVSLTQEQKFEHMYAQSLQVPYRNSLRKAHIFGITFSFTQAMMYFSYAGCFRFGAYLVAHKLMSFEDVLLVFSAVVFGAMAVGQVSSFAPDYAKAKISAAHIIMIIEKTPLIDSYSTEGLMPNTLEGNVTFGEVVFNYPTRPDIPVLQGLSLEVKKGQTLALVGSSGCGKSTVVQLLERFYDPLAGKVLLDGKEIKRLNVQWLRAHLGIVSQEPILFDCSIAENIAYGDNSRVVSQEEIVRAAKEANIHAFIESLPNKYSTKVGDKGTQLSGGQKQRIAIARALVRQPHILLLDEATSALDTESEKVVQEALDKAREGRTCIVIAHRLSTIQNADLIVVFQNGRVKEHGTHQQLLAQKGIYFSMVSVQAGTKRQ

The structures appear in SMILES notation.

Multidrug resistance-associated protein 1, sequence (P33527 whole entry): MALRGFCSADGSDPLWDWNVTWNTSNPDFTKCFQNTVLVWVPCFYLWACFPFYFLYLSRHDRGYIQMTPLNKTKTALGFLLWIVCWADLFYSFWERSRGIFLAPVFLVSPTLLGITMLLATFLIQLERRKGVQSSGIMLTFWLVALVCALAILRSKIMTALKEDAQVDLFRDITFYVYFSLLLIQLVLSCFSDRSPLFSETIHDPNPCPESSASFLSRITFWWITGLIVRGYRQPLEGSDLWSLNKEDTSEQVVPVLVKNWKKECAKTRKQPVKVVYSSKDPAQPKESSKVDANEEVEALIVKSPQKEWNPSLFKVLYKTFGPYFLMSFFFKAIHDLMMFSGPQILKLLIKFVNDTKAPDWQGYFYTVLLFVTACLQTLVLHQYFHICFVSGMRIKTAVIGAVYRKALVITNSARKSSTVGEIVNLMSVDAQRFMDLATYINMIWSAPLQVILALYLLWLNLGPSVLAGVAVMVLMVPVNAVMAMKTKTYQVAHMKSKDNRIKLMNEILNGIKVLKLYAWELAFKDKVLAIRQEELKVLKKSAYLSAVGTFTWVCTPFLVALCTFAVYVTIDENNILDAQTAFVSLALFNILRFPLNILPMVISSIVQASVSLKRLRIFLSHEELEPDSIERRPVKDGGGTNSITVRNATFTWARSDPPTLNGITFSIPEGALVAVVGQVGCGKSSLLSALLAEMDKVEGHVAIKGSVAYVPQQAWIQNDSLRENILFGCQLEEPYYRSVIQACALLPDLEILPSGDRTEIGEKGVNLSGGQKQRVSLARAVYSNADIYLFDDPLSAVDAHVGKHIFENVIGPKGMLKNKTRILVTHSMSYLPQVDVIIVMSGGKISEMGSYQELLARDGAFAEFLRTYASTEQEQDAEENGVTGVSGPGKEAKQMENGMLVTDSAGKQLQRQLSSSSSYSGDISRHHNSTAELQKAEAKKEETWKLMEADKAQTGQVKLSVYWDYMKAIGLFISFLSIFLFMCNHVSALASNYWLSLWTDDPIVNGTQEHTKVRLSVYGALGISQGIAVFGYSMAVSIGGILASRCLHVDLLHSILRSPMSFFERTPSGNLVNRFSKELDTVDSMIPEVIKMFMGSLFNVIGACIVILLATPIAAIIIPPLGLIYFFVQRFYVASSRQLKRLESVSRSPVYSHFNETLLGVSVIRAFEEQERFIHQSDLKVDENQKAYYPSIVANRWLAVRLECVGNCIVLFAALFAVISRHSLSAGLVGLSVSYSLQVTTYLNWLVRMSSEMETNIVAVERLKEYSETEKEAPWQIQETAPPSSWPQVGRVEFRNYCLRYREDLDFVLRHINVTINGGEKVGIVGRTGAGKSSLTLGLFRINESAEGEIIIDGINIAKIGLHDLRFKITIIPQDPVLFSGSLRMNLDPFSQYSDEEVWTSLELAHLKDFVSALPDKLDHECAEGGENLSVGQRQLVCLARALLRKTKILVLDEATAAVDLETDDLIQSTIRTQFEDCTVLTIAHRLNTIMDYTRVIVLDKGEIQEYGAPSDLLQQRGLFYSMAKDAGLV

Take `CC[C@]1(O)C[C@H]2CN(CCc3c([nH]c4ccccc34)[C@@](C(=O)OC)(c3cc4c(cc3OC)N(C=O)[C@H]3[C@@](O)(C(=O)OC)[C@H](OC(C)=O)[C@]5(CC)C=CCN6CC[C@]43[C@@H]65)C2)C1` [VINCRISTINE]: in data set [1], the Activity entry is “substrate [+]”.
For the compound `CCC1C[N+]2(CCCC3(C)N=N3)C3CC45c6ccccc6N(C)C4C2CC1C3C5O` (configuration not stated), the Activity entry in data set [2] is “substrate [+]”.
